{
  "source": "patent US20240269170A1",
  "about": "“Treatment of Inflammatory Conditions or Diseases” (Queen Mary University of London, priority 2021, published 2024)",
  "test_system": "K/B×N serum induced arthritis in C57BL/6 mice",
  "assay": "Sustained K/B×N serum induced arthritis, transfer of monocytes from arthritic mice incubated with MCTR3",
  "assay_type": "in vivo, mouse",
  "conditions": "monocytes incubated with 10 μM RG108 for 15 min before 1 nM MCTR3",
  "protocol": "(C-D) K/B×N serum (100 μL, i.p.) was administered to C57BL/6 mice on day 0, 2 and 9 to induce and prolong inflammatory arthritis and, on day 12, mice were treated i.v. with 2×10^6 monocytes isolated from arthritic mice and incubated with either vehicle (PBS+0.1% EtOH) or 1 nM MCTR3 for 90 min at 37° C. Disease course was monitored daily by assessing C) clinical scores and D) oedema. Results are mean±SEM. and expressed as percent change from day of treatment. n=9 per group from two distinct experiments. (E) On day 22 hind paws were harvested joints were fixed, sectioned, stained using H&E stain and leukocyte infiltration evaluated. Top and centre panels present representative images from each experimental group; bottom panel Quantitation of the scores in each of the group. Results are mean±SEM. n=8 mice per group. Statistical differences were evaluated using Mann-Whitney U test. IFP=intrapatellar fat, M=meniscus, TB=Tibia, PF=Pannus formation, arrows denote leukocyte infiltration. (F-G) Paws were harvested 10 days after treatment and lipid mediator profiles were determined using LC-MS/MS-based lipid mediator profiling and evaluated using PLS-DA. (F) scores plot with highlighted regions denoting the clusters representing cells from each group (G) VIP scores for top 15 mediators. Each dot in the score plot represents a separate mouse.\nFIG. 4: Regulation of joint reparative pathways in mice receiving MCTR3-trained monocytes. K/B×N serum (100 μL, i.p.) was administered to C57BL/6 mice on day 0, 2 and 9 to induce and prolong inflammatory arthritis and, on day 12, mice were treated i.v. with 2×10^6 monocytes isolated from arthritic mice and incubated with either vehicle (PBS+0.1% EtOH) or 1 nM MCTR3 for 90 min. (A-C) On day 22 hind paws were harvested, fixed, and stained to evaluate A) proteoglycan content using Safranin-O staining; B) Col 2 and C) Col X expression was evaluated using immunofluorescence. Left panels present representative images from each experimental group, right panels provide a quantitative evaluation of the staining. Results are expressed as percent change vs Monocyte group. n=7-8 mice per group. Statistical differences were evaluated using Wilcoxon signed rank test. (D-I) Hind paws were also collected on day 22 to evaluate the expression of the indicated genes was evaluated using quantitative realtime PCR. Results are from n=5 mice per group. Statistical differences were evaluated using Mann Whitney-U test.\nFIG. 5: MCTR3 reprograms the arthritic monocyte-derive macrophage transcriptome. A-B) Arthritis was induced and prolonged in C57BL/6 mice by administering 100 μL K/B×N serum i.p. on day 0, 2 and 9. Mice were treated on day 12 i.v. with 2×10^6 monocytes isolated from arthritic mice and incubated either with vehicle (PBS+0.1% DMSO) or 10 μM RG108, a DNMT inhibitor, for 15 min and then with a vehicle (PBS+0.1% EtOH) or 1 nM MCTR3 for 90 min (37° C.). Disease course was monitored daily by assessing A) clinical scores and B) oedema. Results are mean±SEM and expressed as percent change from day of treatment. n=10 mice per group. Statistical differences were evaluated using Two-way ANOVA. (C-E) K/B×N serum (100 μL, i.p.) was administered to mice on days 0, 2 and 9 to induce and prolong inflammatory arthritis. On day 12, mice were treated i.v. with 2×10^6 monocytes isolated from arthritic mice that were previously incubated with either vehicle (PBS+0.1% EtOH) or 1 nM MCTR3 for 90 min. Cells were isolated from paw joints on day 22, sorted for CD45^+ cells and single cell RNA sequencing was performed. […] Results are from n=4 mice per group. (F-G) Monocytes were isolated from human healthy volunteers, these cells were then incubated with GM-CSF (7 days, 37° C.) then with either Vehicle or MCTR3 (1 nM, 37° C.). Cells were lysed and the phosphoproteome determined using mass spectrometry. […]",
  "data": [
    {"compound": "O=C(O)C(Cc1c[nH]c2ccccc12)N1C(=O)c2ccccc2C1=O", "note": "(centres unmarked) [RG108]", "values": [
      {"measurement": "protective actions of MCTR3 (ability of reprogrammed monocytes to regulate joint inflammation)", "result": "abolished"},
      {"measurement": "ability of MCTR3 to upregulate Arg-1 in PKH67+ CD64+ cells in vivo", "setting": "day 22", "result": "reversed"}
    ]}
  ]
}
